Read-outs that look alike come from different tables or passages of the source. Residues, ends and D or L forms follow the SMILES beside them. *: point of attachment. Cbz = O=C(OCc1ccccc1)*
How the values were obtained:
[1] = system: VSV-SARS-CoV-2; assay: organism not typed; assay type: cell-based
[2] = system: VSV; assay: microbe, parasite or virus in culture; assay type: cell-based
[3] = system: VSV; conditions: ref [12]; cited from earlier work
[4] = system: MA104 cells; conditions: treated 25 h, WST-8
[5] = system: VSV-SARS-CoV-2; assay type: cell-based; conditions: MA104, MOI of 3, 24 hpi
[6] = system: SARS-CoV; conditions: ref [6]; cited from earlier work
[7] = system: SARS-CoV-2-mNeonGreen; assay: SARS-CoV-2-mNeonGreen infection of Vero E6 cells; assay type: cell-based
[8] = system: VSV-SARS-CoV-2; assay: organism not typed; assay type: cell-based; remark: listed apart in the source
[9] = system: SARS-CoV-2; conditions: ref [4], [7]; cited from earlier work
[10] = in vitro; conditions: African green monkey
[11] = Vesicular stomatitis virus, MA104, read-out: EC50 against VSV
[12] = MA104, read-out: EC50 against VSV-SARS-CoV-2, MA104 cells, pre-treated 1 h, 24 h infection, MOI = 1, GFP signal
[13] = MA104, read-out: EC50 against VSV-SARS-CoV-2 (Fig. S1), MA104 cells, treated 1 h prior, MOI of 0.5, 24 hpi

Question: Which EC50 ([1]; read-out: EC50 against VSV-SARS-CoV-2, MA104 cells, pre-treated 1 h, 24 h infection, MOI = 1, GFP signal) does the source give for `C[C@H]1CCC/C=C/[C@@H]2C[C@H](O)C[C@H]2[C@H](O)/C=C/C(=O)O1` [Brefeldin A, brefeldin A] here?
Answer: < 2 µM

Question: With `O=C(O)/C=C/c1ccc(O)c(O)c1` [Caffeic Acid, caffeic acid] as the compound, how does the EC50 [2, 11] read?
Answer: 6.7 µM

Question: And the EC50 [1, 12]?
Answer: 4.66 µM

Question: With `C/C=C/[C@H]1O[C@@](O)([C@@H](C)[C@H](O)[C@H](C)[C@H]2OC(=O)/C(OC)=C/C(C)=C/[C@@H](C)[C@@H](O)[C@@H](CC)[C@@H](O)[C@H](C)C/C(C)=C/C=C/[C@@H]2OC)C[C@@H](O[C@H]2C[C@@H](O)[C@H](OC(N)=O)[C@@H](C)O2)[C@@H]1C` [Concanamycin A, concanamycin A] as the compound, how does the EC50 [2, 11] read?
Answer: 5.55 µM

Question: And the EC50 [1, 12]?
Answer: < 0.01 µM

Question: With `CCOC(=O)[C@H]1O[C@@H]1C(=O)N[C@@H](CC(C)C)C(=O)NCCC(C)C` [E-64d] as the compound, how does the “sensitivity of VSV to treatment (in words)” value [3] read?
Answer: not be sensitive to E-64d treatment

Question: What about the CC50 [4] of the same compound?
Answer: > 300 µM

Question: Which results are given for `CCCCCCCCc1ccc(CCC(N)(CO)CO)cc1` [FTY720]?
Answer: EC50 [2, 11]: 16.5 µM; EC50 [1, 12]: 5.17 µM

Question: With `CC(C)Cn1c(=O)n(C)c(=O)c2[nH]cnc21` [IBMX, 3-isobutyl-1-methylxanthine] as the compound, how does the EC50 [2, 11] read?
Answer: < 2 µM

Question: And the EC50 [1, 12]?
Answer: < 2 µM

Question: Which results are given for `Clc1ccc(N/N=C(\c2ccccc2)c2ccccn2)nc1` [JIB-04]?
Answer: percentage of inhibition ([5]; JIB-04 0.3 µM, NTZ 0 µM): 21%; percentage of inhibition ([5]; JIB-04 1 µM, NTZ 0 µM): 50%; percentage of inhibition ([5]; JIB-04 3 µM, NTZ 0 µM): 73%; percentage of inhibition ([5]; JIB-04 10 µM, NTZ 0 µM): 90%

Question: What does the source list for `CC(=O)N1CCN(c2ccc(OCC3COC(Cn4ccnc4)(c4ccc(Cl)cc4Cl)O3)cc2)CC1` (stereo not shown) [Ketoconazole, ketoconazole]?
Answer: EC50 [2, 11]: > 100 µM; EC50 [1, 12]: 30.1 µM

Question: What does the source list for `CC(C)C[C@@H](C=O)NC(=O)[C@H](CC(C)C)NC(=O)[C@H](CC(C)C)NC(=O)OCc1ccccc1` [MG132] (Cbz-Leu-Leu-Leu-aldehyde)?
Answer: EC50 [1, 12]: 0.64 µM; selectivity in antiviral activities, VSV EC50 compared to VSV-SARS-CoV-2 EC50 ([1]; MA104 cells): 100 fold; SARS-CoV replication (in words) [6]: impair SARS-CoV replication

Question: For `CC(=O)Oc1ccccc1C(=O)Nc1ncc([N+](=O)[O-])s1` [Nitazoxanide, nitazoxanide], which EC50 [2, 11] is on record?
Answer: 16.3 µM

Question: What about the “SI (selectivity index)” value ([7]; SARS-CoV-2-mNeonGreen, Vero E6 cells) of the same compound?
Answer: 167

Question: What about the EC50 ([7]; Severe acute respiratory syndrome coronavirus 2, Vero C1008, read-out: EC50 against SARS-CoV-2-mNeonGreen) of the same compound?
Answer: 4.9 µM

Question: What about the EC50 [1, 13] of the same compound?
Answer: 5.82 µM

Question: And the EC50 [1, 12]?
Answer: 10.5 µM

Question: And the “SI (selectivity index)” value ([1]; VSV-SARS-CoV-2, MA104 cells)?
Answer: 237

Question: What about the percentage of inhibition ([5]; JIB-04 0 µM, NTZ 1 µM) of the same compound?
Answer: 16%

Question: And the percentage of inhibition ([5]; JIB-04 0 µM, NTZ 3 µM)?
Answer: 24%

Question: And the percentage of inhibition ([5]; JIB-04 0 µM, NTZ 10 µM)?
Answer: 42%

Question: And the percentage of inhibition ([5]; JIB-04 0 µM, NTZ 30 µM)?
Answer: 92%

Question: For `COc1ccc2cc1Oc1ccc(cc1)C[C@H]1c3cc(c(OC)cc3CCN1C)Oc1c(OC)c(OC)cc3c1[C@H](C2)N(C)CC3` [Tetrandrine, tetrandrine], which EC50 [2, 11] is on record?
Answer: 23.2 µM

Question: What about the EC50 [1, 12] of the same compound?
Answer: 1.23 µM

Question: With `C/C=C(/C)C(=O)O[C@H]1C(C)=C2[C@H]([C@@H]1OC(=O)CCCCCCC)[C@@](C)(OC(C)=O)C[C@H](OC(=O)CCC)[C@@]1(O)[C@H]2OC(=O)[C@@]1(C)O` [Thapsigargin, thapsigargin] as the compound, how does the EC50 [2, 11] read?
Answer: 4.08 µM

Question: And the EC50 [1, 12]?
Answer: 0.22 µM

Question: Which EC50 ([2]; read-out: EC50 against VSV) does the source give for `CC(C)[C@H](NC(=O)OCc1ccccc1)C(=O)N[C@H](C=O)Cc1ccccc1` [calpain inhibitor III] (Cbz-Val-Phe-aldehyde) here?
Answer: 10.7 µM

Question: And the EC50 ([8]; Vero E6 cells, pre-treated 1 h, 24 h infection, read-out: EC50 against VSV-SARS-CoV-2 in Vero E6 cells)?
Answer: < 0.5 µM

Question: And the CC50 [4]?
Answer: > 300 µM

Question: What about the “selectivity in antiviral activities, VSV EC50 compared to VSV-SARS-CoV-2 EC50” value ([1]; MA104 cells) of the same compound?
Answer: more than 30 fold

Question: What about the EC50 ([1]; MA104 cells, pre-treated 1 h, 24 h infection, MOI = 1, GFP signal, read-out: EC50 against VSV-SARS-CoV-2) of the same compound?
Answer: 0.231 µM

Question: Which “suppression of SARS-CoV-2 replication (in words)” value [9] does the source give for `CSCC[C@@H](C=O)NC(=O)[C@H](CC(C)C)NC(=O)[C@H](CC(C)C)NC(C)=O` [calpain inhibitor II] (Ac-Leu-Leu-Met-aldehyde) here?
Answer: suppressed SARS-CoV-2 replication

Question: What does the source list for `CCCC[C@@H](C=O)NC(=O)[C@H](CC(C)C)NC(=O)OCc1ccccc1` [calpeptin]?
Answer: EC50 [2, 11]: 7.43 µM; EC50 ([8]; Vero C1008, read-out: EC50 against VSV-SARS-CoV-2 in Vero E6 cells, Vero E6 cells, pre-treated 1 h, 24 h infection): < 0.5 µM; EC50 [1, 12]: 0.208 µM; selectivity in antiviral activities, VSV EC50 compared to VSV-SARS-CoV-2 EC50 ([1]; MA104 cells): more than 30 fold; suppression of SARS-CoV-2 replication (in words) [9]: suppressed SARS-CoV-2 replication; CC50 [10]: 300 µM

Question: For `O=C(/C=C/c1ccc(O)c(O)c1)O[C@H](Cc1ccc(O)c(O)c1)C(=O)O` [rosmarinic acid], which EC50 [1, 13] is on record?
Answer: > 100 µM

Question: What about the “inhibition of VSV-SARS-CoV-2 infection (in words)” value ([1]; MA104 cells) of the same compound?
Answer: did not inhibit VSV-SARS-CoV-2 infection

Question: And the CC50 [10]?
Answer: > 300 µM

From paper PMC10936414 (mBio, 2024)
